Reference: patent US20050129687A1, “Use of inhibitors of PACAP receptor activity for treatment of overactive bladder and pelvic floor pain syndrome” (University of Vermont and State Agricultural College, priority 2003, published 2005)
Where no end group is shown, it is not given here.

Legend:
[1] = test system: rat with acute (4 hr) CYP-induced cystitis; assay: Conscious cystometry in rat with acute (4 hr) CYP-induced cystitis, intravesical delivery; format: in vivo; settings: 200 nmol intravesically
Experimental: (§1) Chemical cystitis was induced in adult female Wistar rats by cyclophosphamide (CYP), which is metabolized to acrolein, an irritant eliminated in the urine. CYP (Sigma ImmunoChemicals, St. Louis, Mo.) was administered in one of the following ways: (1) 4 hr (150 mg/kg; i.p.) prior to euthanasia of the animals to elicit acute inflammation (n=6); (2) 48 hr (150 mg/kg; i.p.) prior to euthanasia to examine an intermediate inflammation (n=6) or (3) administered every third day for 10 days to elicit chronic inflammation (n=8; 75 mg/kg; i.p). All injections of CYP were performed under isoflurane (2%) anesthesia.
(§2) A lower midline abdominal incision was performed under general anesthesia (ketamine 60 mg/kg, xylazine 10 mg/kg, i.p.), and polyethylene tubing (PE-50) with the end flared by heat was inserted into the dome of the bladder and secured in place with a 6-0 nylon purse string suture. The distal end of the tubing was sealed, tunneled subcutaneously and externalized at the back of the neck, out of the animal's reach. Abdominal and neck incisions were closed with 4-0 nylon sutures. Animals were maintained for 72 hours after survival surgery to ensure complete recovery.
Control rats and rats treated with CYP (acute; 4 hr or intermediate; 48 hr) or SCI rats and also treated with a specific PACAP antagonist, PACAP6-38 or vehicle (0.9% saline), were evaluated with cystometry. […] Intravesical pressure was recorded continuously using a Neurodata Acquisition System (Grass® Model 15, Astro-Med, Inc, West Warwick, R.I.). At least four reproducible micturition cycles were recorded after the initial stabilization period of 25-30 minutes. The following cystometric parameters were recorded in each animal: filling pressure (pressure at the beginning of the bladder filling), threshold pressure (bladder pressure immediately prior to micturition), micturition pressure (the maximal bladder pressure during micturition), micturition interval (time between micturition events), void volume and presence or absence of non-voiding bladder contractions (NVC). […]

[2] = test system: tracheal muscles in cats; settings: cited from earlier work
[3] = test system: rat with chronic CYP-induced cystitis; assay: Conscious cystometry in rats with chronic CYP-induced cystitis; format: in vivo
Experimental: as §1
(§3) Rats were anesthetized with isoflurane anesthesia (2-3%) and the atlanto-occiptal membrane was exposed by aseptic surgical technique. Polyethylene tubing (PE-10, Clay Adams, Parsippany, N.J.) was inserted under the membrane and passed to the lumbosacral spinal cord (L6-S1). Correct catheter placement was confirmed at time of euthanasia. The intrathecal catheter was secured in place with a small drop of dental cement and the incision was closed in two layers. The intravesical catheter was then inserted.
as §2
(§4) Control rats and rats treated with CYP (acute; 4 hr or intermediate; 48 hr) or SCI rats and also treated with a specific PACAP antagonist, PACAP6-38 or vehicle (0.9% saline), were evaluated with cystometry. For conscious cystometry, a rat was placed unrestrained in a cage. Prior to the start of the recording, the bladder was emptied and the catheter was connected via a T-tube to a pressure transducer (Grass® Model PT300, West Warwick, R.I.) and microinjection pump (Harvard Apparatus 22, South Natick, Mass.). We infused a 0.9% saline solution at room temperature into the bladder at a rate of 10 ml/hour. Intravesical pressure was recorded continuously using a Neurodata Acquisition System (Grass® Model 15, Astro-Med, Inc, West Warwick, R.I.). At least four reproducible micturition cycles were recorded after the initial stabilization period of 25-30 minutes. The following cystometric parameters were recorded in each animal: filling pressure (pressure at the beginning of the bladder filling), threshold pressure (bladder pressure immediately prior to micturition), micturition pressure (the maximal bladder pressure during micturition), micturition interval (time between micturition events), void volume and presence or absence of non-voiding bladder contractions (NVC). For the present study, NVCs were defined as increases in bladder pressure of at least 7 cm H2O without release of urine.
The effects of a specific PAC1 receptor antagonist, PACAP6-38 (i.t. or intravesical) (Peninsula Pharmaceuticals) or vehicle (0.9% saline, i.t. or intravesical; artificial cerebrospinal fluid, aCSF, i.t.) on lower urinary tract function in rats treated with CYP (4 hr, 48 hr or chronic cystitis) were evaluated. Separate groups of rats were used to evaluate the effects of PACAP6-38 given either through the i.t. catheter or the intravesical catheter. After recording at least three reproducible micturition cycles, PACAP6-38 or saline was administered through the catheters (i.t. or intravesical) and the effects evaluated.
All values are means±S.E.M. Comparisons of urodynamic parameters between control and experimental treatments were made using the Fischer exact test. […]

[4] = test system: rat with chronic spinal cord injury (SCI); assay: Conscious cystometry in rats with chronic spinal cord injury (SCI); format: in vivo
Experimental: A complete spinal cord transaction was performed in adult, female rats anesthetized with isoflurane (2-3%). Animals received antibiotic and analgesic treatment following surgery. Animals were evaluated using conscious cystometry six-weeks following surgery when each animal had recovered automatic micturition. The University of Vermont IACUC approved all experimental procedures (protocol #02-108, 03-030, 03-148D) involving animal use. Animal care was under the supervision of the University of Vermont's Office of Animal Care in accordance with the Association for Assessment and Accreditation of Laboratory Animal Care and National Institutes of Health guidelines. All efforts were made to minimize animal stress/distress and suffering and to use the minimum number of animals. Currently, no alternatives exist to the use of whole, live animals in the present study.
as §3, §2, §4
All values are means±S.E.M. Comparisons of urodynamic parameters between control and experimental treatments were made using the […]. When F ratios exceeded the critical value (P≦0.05), the Dunnett's post-hoc test was used to compare the control mean with each experimental mean.

[5] = acute (4 hr) CYP-induced cystitis (FIG. 4)
[6] = 1 nmol intrathecally, rat with chronic CYP-induced cystitis (FIG. 1)
[7] = 1 nmol intrathecally, rat with chronic SCI
[8] = 1 nmol, SCI rats compared to SCI rats treated with vehicle (aCSF) (FIG. 7)

Substance	persistence of drug effects after administration ([1]; acute (4 hr) CYP-induced cystitis)	appearance of non-voiding bladder contractions [1, 5]	intercontraction interval [1, 5]	inhibitory-NANC (non-adrenergic, non-cholinergic) relaxation [2]	persistence of drug effects after administration ([3]; 1 nmol intrathecally, rat with chronic CYP-induced cystitis)	appearance of non-voiding bladder contractions [3, 6]	intercontraction interval [3, 6]	intercontraction interval ([3]; rats treated chronically with CYP, 1 or 10 nmol (FIG. 3))	Non-voiding bladder contractions per cycle (NVC/cycle) ([3]; rats treated chronically with CYP, compared to untreated rats with CYP-induced cystitis (FIG. 2))	Non-voiding bladder contractions [4, 7]	persistence of drug effects after administration [4, 7]	micturition pressures ([4]; 1 nmol intrathecally, rat with chronic SCI (FIGS. 5 and 6))	Intermicturition pressure [4, 8]	micturition pressure [4, 8]	threshold pressure [4, 8]	effect of agonist on the PACAP6-38-induced change in intercontraction interval ([3]; rats treated chronically with CYP, after PACAP6-38 treatment)	effect of intrathecal agonist on the PACAP6-38-induced reduction of pressures ([4]; SCI rats, intrathecal, after PACAP6-38 (FIG. 7))
Phe-Thr-Asp-Ser-Tyr-Ser-Arg-Tyr-Arg-Lys-Gln-Met-Ala-Val-Lys-Lys-Tyr-Leu-Ala-Ala-Val-Leu-Gly-Lys-Arg-Tyr-Lys-Gln-Arg-Val-Lys-Asn-Lys (FTDSYSRYRKQMAVKKYLAAVLGKRYKQRVKNK) [PACAP6-38]	at least 2 hours	reduced	increased	partially but significantly inhibited	at least 5 hours	reduced	increased	significantly lengthened	significantly reduced	not eliminated by treatment but reduced in pressure	at least 5 hours	reduced	reduced	reduced	reduced		
Pituitary adenylate cyclase-activating polypeptide (HSDGIFTDSYSRYRKQMAVKKYLAAVLGKRYKQRVKNK; ends and bridges not checked) [PACAP, polypeptide hormone that stimulates adenylate cyclase in pituitary cells; used as agonist]																reversed	blocked this effect
